From ChEMBL document CHEMBL3044783, “Effects of pyrrolizidine alkaloids on the performance of plant-parasitic and free-living nematodes” (Pest Manag Sci, 2009)
In brackets after ≈: the same amount, converted by molar mass. Activity calls are given as the source filed them. The rule behind the calls is not given here.

Legend:
Meloidogyne incognita [1] = assay: Nematicidal activity against juvenile stage of Meloidogyne incognita (root-knot nematode) assessed as inhibition of mobility after 168 hr; type: functional
Heterodera schachtii [2] = assay: Nematicidal activity against juvenile stage of Heterodera schachtii assessed as inhibition of mobility incubated for 168 hr followed by compound wash out measured after 24 hr; type: functional
Heterodera schachtii [3] = assay: Nematicidal activity against juvenile stage of Heterodera schachtii assessed as inhibition of mobility after 168 hr; type: functional
Meloidogyne incognita [4] = assay: Nematicidal activity against juvenile stage of Meloidogyne incognita (root-knot nematode) assessed as inhibition of mobility after 20 hr; type: functional
Heterodera schachtii [5] = assay: Nematicidal activity against juvenile stage of Heterodera schachtii assessed as inhibition of mobility after 20 hr; type: functional
Meloidogyne incognita [6] = assay: Nematicidal activity against juvenile stage of Meloidogyne incognita (root-knot nematode) assessed as inhibition of mobility incubated for 168 hr followed by compound wash out measured after 24 hr; type: functional
[7] = tested on: Phasmarhabditis hermaphrodita; assay: Nematicidal activity against juvenile stage of Phasmarhabditis hermaphrodita of assessed as inhibition of mobility after 20 hr; type: functional, organism-based
[8] = Stability of the compound assessed as conversion of N-oxide to free base at 5 mg/mL after 24 to 168 hr by thin layer chromatographic analysis under UV light and hot temperature; type: physicochemical
[9] = Stability of the compound assessed as apperance of pyrroles at 5 mg/mL after 24 to 168 hr by thin layer chromatographic analysis under UV light and cold temperature; type: physicochemical
[10] = Stability of the compound assessed as conversion of N-oxide to free base at 5 mg/mL after 24 to 168 hr by thin layer chromatographic analysis under hot temperature; type: physicochemical
Meloidogyne incognita [11] = assay: Repellent activity against juvenile stage of Meloidogyne incognita (root-knot nematode) at 0.1 mg/mL after 20 hr by stereomicroscopic analysis (reference value: 50%); type: functional
Meloidogyne incognita [12] = assay: Repellent activity against juvenile stage of Meloidogyne incognita (root-knot nematode) at 1 mg/mL after 20 hr by stereomicroscopic analysis (reference value: 50%); type: functional
[13] = Stability of the compound assessed as apperance of new pyrrolizidine alkaloids at 5 mg/mL after 24 to 168 hr by thin layer chromatographic analysis under cold temperature; type: physicochemical
[14] = Stability of the compound assessed as conversion of N-oxide to free base at 5 mg/mL after 24 to 168 hr by thin layer chromatographic analysis under UV light and cold temperature; type: physicochemical
[15] = Stability of the compound assessed as apperance of pyrroles at 5 mg/mL after 24 to 168 hr by thin layer chromatographic analysis under cold temperature; type: physicochemical
Pratylenchus penetrans [16] = assay: Nematicidal activity against juvenile stage of Pratylenchus penetrans assessed as inhibition of mobility incubated for 168 hr followed by compound wash out measured after 24 hr; type: functional
Meloidogyne incognita [17] = assay: Repellent activity against juvenile stage of Meloidogyne incognita (root-knot nematode) at 1 mg/mL after 40 hr by stereomicroscopic analysis (reference value: 51%); type: functional
Rhabditis sp. [18] = assay: Nematicidal activity against juvenile stage of Rhabditis sp. assessed as inhibition of mobility after 168 hr; type: functional
[19] = tested on: Phasmarhabditis hermaphrodita; assay: Nematicidal activity against juvenile stage of Phasmarhabditis hermaphrodita of assessed as inhibition of mobility incubated for 168 hr followed by compound wash out measured after 24 hr; type: functional; conditions: Pellioditis hermaphrodita
[20] = Stability of the compound assessed as apperance of new pyrrolizidine alkaloids at 5 mg/mL after 24 to 168 hr by thin layer chromatographic analysis under UV light and hot temperature; type: physicochemical
[21] = tested on: Phasmarhabditis hermaphrodita; assay: Nematicidal activity against juvenile stage of Phasmarhabditis hermaphrodita of assessed as inhibition of mobility after 168 hr; type: functional
Pratylenchus penetrans [22] = assay: Nematicidal activity against juvenile stage of Pratylenchus penetrans assessed as inhibition of mobility after 20 hr; type: functional
Meloidogyne incognita [23] = assay: Repellent activity against juvenile stage of Meloidogyne incognita (root-knot nematode) at 0.1 mg/mL after 40 hr by stereomicroscopic analysis (reference value: 51%); type: functional
[24] = Stability of the compound assessed as apperance of pyrroles at 5 mg/mL after 24 to 168 hr by thin layer chromatographic analysis under UV light and hot temperature; type: physicochemical
Rhabditis sp. [25] = assay: Nematicidal activity against juvenile stage of Rhabditis sp. assessed as inhibition of mobility after 20 hr; type: functional, organism-based
Rhabditis sp. [26] = assay: Repellent activity against juvenile stage of Rhabditis sp. at 0.1 mg/mL after 20 hr by stereomicroscopic analysis (reference value: 48%); type: functional
Meloidogyne incognita [27] = assay: Ovicidal activity against Meloidogyne incognita (root-knot nematode) assessed as egg hatching at 1 mg/mL after 336 hr (reference value: 54%); type: functional
[28] = Stability of the compound assessed as apperance of new pyrrolizidine alkaloids at 5 mg/mL after 24 to 168 hr by thin layer chromatographic analysis under UV light and cold temperature; type: physicochemical
[29] = Stability of the compound assessed as conversion of N-oxide to free base at 5 mg/mL after 24 to 168 hr by thin layer chromatographic analysis under cold temperature; type: physicochemical
Pratylenchus penetrans [30] = assay: Nematicidal activity against juvenile stage of Pratylenchus penetrans assessed as inhibition of mobility after 168 hr; type: functional
Meloidogyne incognita [31] = assay: Ovicidal activity against Meloidogyne incognita (root-knot nematode) assessed as egg hatching at 1 mg/mL after 24 hr (reference value: 3%); type: functional
[32] = Stability of the compound assessed as apperance of new pyrrolizidine alkaloids at 5 mg/mL after 24 to 168 hr by thin layer chromatographic analysis under hot temperature; type: physicochemical
Rhabditis sp. [33] = assay: Repellent activity against juvenile stage of Rhabditis sp. at 0.1 mg/mL after 40 hr by stereomicroscopic analysis (reference value: 50%); type: functional
[34] = Stability of the compound assessed as apperance of pyrroles at 5 mg/mL after 24 to 168 hr by thin layer chromatographic analysis under hot temperature; type: physicochemical
Rhabditis sp. [35] = assay: Repellent activity against juvenile stage of Rhabditis sp. at 1 mg/mL after 20 hr by stereomicroscopic analysis (reference value: 48%); type: functional
Rhabditis sp. [36] = assay: Repellent activity against juvenile stage of Rhabditis sp. at 1 mg/mL after 40 hr by stereomicroscopic analysis (reference value: 50%); type: functional
[37] = Stability of the compound assessed as conversion of free base to N-oxide at 5 mg/mL after 24 to 168 hr by thin layer chromatographic analysis under cold temperature; type: physicochemical
[38] = Stability of the compound assessed as apperance of pyrroles at 5 mg/mL after 166 hr by thin layer chromatographic analysis under hot temperature; type: physicochemical
[39] = Stability of the compound assessed as apperance of new pyrrolizidine alkaloids at 5 mg/mL after 166 hr by thin layer chromatographic analysis under cold temperature; type: physicochemical
[40] = Stability of the compound assessed as apperance of new pyrrolizidine alkaloids at 5 mg/mL after 24 hr by thin layer chromatographic analysis under hot temperature; type: physicochemical
[41] = Stability of the compound assessed as apperance of new pyrrolizidine alkaloids at 5 mg/mL after 24 hr by thin layer chromatographic analysis under cold temperature; type: physicochemical
[42] = Stability of the compound assessed as conversion of free base to N-oxide at 5 mg/mL after 24 to 168 hr by thin layer chromatographic analysis under UV light and cold temperature; type: physicochemical
[43] = Stability of the compound assessed as apperance of new pyrrolizidine alkaloids at 5 mg/mL after 166 hr by thin layer chromatographic analysis under hot temperature; type: physicochemical
[44] = Stability of the compound assessed as conversion of free base to N-oxide at 5 mg/mL after 24 to 168 hr by thin layer chromatographic analysis under UV light and hot temperature; type: physicochemical
[45] = Stability of the compound assessed as apperance of pyrroles at 5 mg/mL after 24 hr by thin layer chromatographic analysis under hot temperature; type: physicochemical
[46] = Stability of the compound assessed as conversion of free base to N-oxide at 5 mg/mL after 24 to 168 hr by thin layer chromatographic analysis under hot temperature; type: physicochemical

| Compound | MIC50 (Meloidogyne incognita [1]) | MIC50 (Heterodera schachtii [2]) | MIC50 (Heterodera schachtii [3]) [µg/mL] | MIC50 (Meloidogyne incognita [4]) | MIC50 (Heterodera schachtii [5]) | MIC50 (Meloidogyne incognita [6]) | MIC50 [7] | Stability [9] | Repellency (Meloidogyne incognita [11]) [%] | Repellency (Meloidogyne incognita [12]) [%] | MIC50 (Pratylenchus penetrans [16]) | Repellency (Meloidogyne incognita [17]) [%] | MIC50 (Rhabditis sp. [18]) [µg/mL] | Stability [20] | MIC50 (Pratylenchus penetrans [22]) | Repellency (Meloidogyne incognita [23]) [%] | Stability [24] | MIC50 (Rhabditis sp. [25]) | Repellency (Rhabditis sp. [26]) [%] | Activity (Meloidogyne incognita [27]) [%] | also measured |
| --- | --- | --- | --- | --- | --- | --- | --- | --- | --- | --- | --- | --- | --- | --- | --- | --- | --- | --- | --- | --- | --- |
| C/C=C(/C)C(=O)O[C@H]1CCN2CC=C(COC(=O)[C@](O)([C@H](C)OC)C(C)(C)O)[C@H]12 [LASIOCARPINE] | 500 µg/mL (≈ 1.22 mM) | 1000 µg/mL (≈ 2.43 mM) | 3800 (≈ 9.23 mM) | inactive | inactive | 1000 µg/mL (≈ 2.43 mM) | – | – | – | – | – | – | – | – | – | – | – | – | – | – | – |
| C[C@H]1C(=O)O[C@@H]2CC[N+]3([O-])CC=C(COC(=O)[C@](C)(O)[C@]1(C)O)[C@H]23 (stereo not given in full) [MONOCROTALINE N-OXIDE] | inactive | 37100 µg/mL (≈ 109 mM) | 700 (≈ 2.05 mM) | inactive | inactive | inactive | inactive | Stable | 52 | 54 | inactive | 56 | 21200 (≈ 62.1 mM) | Stable | inactive | 51 | Stable | inactive | 89 | 16 | Stability [8]: Stable; Stability [10]: Stable; Stability [13]: Stable; Stability [14]: Stable; Stability [15]: Stable; MIC50 [19]: 17500 µg/mL (≈ 51.3 mM); MIC50 ([21]; Pellioditis hermaphrodita): 13700 µg/mL (≈ 40.1 mM); Stability [28]: Stable; Stability [29]: Stable; MIC50 (Pratylenchus penetrans [30]): inactive; Activity (Meloidogyne incognita [31]): 7%; Stability [32]: Stable; Repellency (Rhabditis sp. [33]): 90%; Stability [34]: Stable; Repellency (Rhabditis sp. [35]): 95%; Repellency (Rhabditis sp. [36]): 100% |
| C[C@H]1C(=O)O[C@@H]2CCN3CC=C(COC(=O)[C@](C)(O)[C@]1(C)O)[C@H]23 [MONOCROTALINE] | 300 µg/mL (≈ 0.922 mM) | 1700 µg/mL (≈ 5.22 mM) | 2000 (≈ 6.15 mM) | 31500 µg/mL (≈ 96.8 mM) | inactive | 400 µg/mL (≈ 1.23 mM) | inactive | Unstable | 51 | 55 | 5800 µg/mL (≈ 17.8 mM) | 52 | 150 (≈ 0.461 mM) | Unstable | 25900 µg/mL (≈ 79.6 mM) | 52 | Unstable | inactive | 45 | 29 | Stability [37]: Stable; Stability [38]: Unstable; Stability [39]: Unstable; Stability [40]: Stable; Stability [41]: Stable; MIC50 [21]: inactive; Stability [28]: Unstable; MIC50 (Pratylenchus penetrans [30]): 1800 µg/mL (≈ 5.53 mM); Stability [42]: Stable; Stability [43]: Unstable; Activity (Meloidogyne incognita [31]): 2%; Stability [44]: Stable; Stability [45]: Stable; Repellency (Rhabditis sp. [33]): 49%; Stability [46]: Stable; Repellency (Rhabditis sp. [35]): 92%; Repellency (Rhabditis sp. [36]): 93% |
| C/C=C1/C[C@@H](C)[C@@](C)(O)C(=O)OCC2=CC[N+]3([O-])CC[C@@H](OC1=O)[C@@H]23 (stereo not given in full) [SENECIONINE N-OXIDE] | 2900 µg/mL (≈ 8.25 mM) | inactive | 3400 (≈ 9.68 mM) | inactive | 7200 µg/mL (≈ 20.5 mM) | inactive | – | – | – | – | – | – | – | – | – | – | – | – | – | – | – |
